Columns and labels:
Format in all cases: in vivo
Parameters in all cases: key: 5=total damage to plant; 0=no damage to plant
Settings in all cases: comparison of enantiomers
ZEAMX = Zea mays [1] = experiment: Post-emergence herbicidal activity, glasshouse pot test
Method: (§1) Seeds of a variety of test species were sown in standard soil in pots. After 8 days cultivation (post-emergence) under controlled conditions in a glasshouse (at 24/16° C., day/night; 14 hours light; 65% humidity), the plants were sprayed with an aqueous spray solution derived from the formulation of the technical active ingredient in acetone/water (50:50) solution containing 0.5% Tween 20 (polyoxyethelyene sorbitan monolaurate, CAS RN 9005-64-5). The test plants were then grown in a glasshouse under controlled conditions (at 24/16° C., day/night; 14 hours light; 65% humidity) and watered twice daily. After 13 days, the test was evaluated (5=total damage to plant; 0=no damage to plant). Pre- and post-emergence testing was carried out as detailed above on the compounds A1, A2, A4 and A5 and their respective S-enantiomers.

LOLPE [2] = experiment: as above
Method: as §1

SETFA = Setaria faberi [3] = experiment: as above
Method: as §1

[4] = tested on: AMARE = Amaranthus retroflexus; experiment: as above
Method: as §1

[5] = tested on: ABUTH = Abutilon theophrasti; experiment: as above
Method: as §1

[6] = tested on: ECHCG = Echinochloa crus-galli; experiment: as above
Method: as §1

ZEAMX = Zea mays [7] = experiment: Pre-emergence herbicidal activity, glasshouse pot test
Method: as §1, with “After” for “After 8 days”, “for one day (pre-emergence)” for “(post-emergence)”

LOLPE [8] = experiment: as above
Method: as §1, with “After” for “After 8 days”, “for one day (pre-emergence)” for “(post-emergence)”

SETFA = Setaria faberi [9] = experiment: as above
Method: as §1, with “After” for “After 8 days”, “for one day (pre-emergence)” for “(post-emergence)”

[10] = tested on: AMARE = Amaranthus retroflexus; experiment: as above
Method: as §1, with “After” for “After 8 days”, “for one day (pre-emergence)” for “(post-emergence)”

[11] = tested on: ABUTH = Abutilon theophrasti; experiment: as above
Method: as §1, with “After” for “After 8 days”, “for one day (pre-emergence)” for “(post-emergence)”

[12] = tested on: ECHCG = Echinochloa crus-galli; experiment: as above
Method: as §1, with “After” for “After 8 days”, “for one day (pre-emergence)” for “(post-emergence)”

SMILES: COC[C@H]1C(O)N(c2cc(C(C)(C)C)on2)C(=O)N1C (stereo partly drawn) [A4 S-enantiomer, reference compound]
- ZEAMX damage score (0-5) (ZEAMX = Zea mays [1]; 62.5 g/Ha): 0
- ZEAMX damage score (0-5) (ZEAMX = Zea mays [1]; 250 g/Ha): 0
- LOLPE damage score (0-5) (LOLPE [2]; 62.5 g/Ha): 0
- LOLPE damage score (0-5) (LOLPE [2]; 250 g/Ha): 0
- SEFTA damage score (0-5) (SETFA = Setaria faberi [3]; 62.5 g/Ha): 0
- SEFTA damage score (0-5) (SETFA = Setaria faberi [3]; 250 g/Ha): 0
- AMARE damage score (0-5) ([4]; 62.5 g/Ha): 0
- AMARE damage score (0-5) ([4]; 250 g/Ha): 2
- ABUTH damage score (0-5) ([5]; 62.5 g/Ha): 0
- ABUTH damage score (0-5) ([5]; 250 g/Ha): 0
- ECHCG damage score (0-5) ([6]; 62.5 g/Ha): 0
- ECHCG damage score (0-5) ([6]; 250 g/Ha): 1
- ZEAMX damage score (0-5) (ZEAMX = Zea mays [7]; 62.5 g/Ha): 0
- ZEAMX damage score (0-5) (ZEAMX = Zea mays [7]; 250 g/Ha): 0
- LOLPE damage score (0-5) (LOLPE [8]; 62.5 g/Ha): 0
- LOLPE damage score (0-5) (LOLPE [8]; 250 g/Ha): 0
- SEFTA damage score (0-5) (SETFA = Setaria faberi [9]; 62.5 g/Ha): 0
- SEFTA damage score (0-5) (SETFA = Setaria faberi [9]; 250 g/Ha): 0
- AMARE damage score (0-5) ([10]; 62.5 g/Ha): 1
- AMARE damage score (0-5) ([10]; 250 g/Ha): 3
- ABUTH damage score (0-5) ([11]; 62.5 g/Ha): 0
- ABUTH damage score (0-5) ([11]; 250 g/Ha): 0
- ECHCG damage score (0-5) ([12]; 62.5 g/Ha): 0
- ECHCG damage score (0-5) ([12]; 250 g/Ha): 0

From patent publication US20170121319A1, “Herbicidal Compounds” (Syngenta Participations AG, priority 2014, published 2017)
